Measurements taken from publication PMC9692424, “In Vitro Screening for Anti-Acetylcholinesterase and Antioxidant Activities of Hottonia palustris L. Extracts and Their Unusual Flavonoids” (Molecules, 2022).
Like-named read-outs stand apart in the source and are kept apart here.

Experiments:
[1] = biological target: acetylcholinesterase (AChE) (Homo sapiens, UniProt P22303); experiment: biochemical
Protocol: Acetylcholinesterase inhibition was determined according to the previously described method [34] with a slight modification. The assay was carried out in Tris-HCl buffer (pH = 8 at 25 °C). The test extracts or compounds were diluted in the same buffer to the appropriate concentrations. Firstly, the reaction mixture containing the sample solution (50 µL), AChE solution (25 µL, 0.25 U/mL), and Ellman’s Reagent (3 mM, 125 µL) was incubated for 15 min at room temperature. Subsequently, 25 µL of ACh iodide (15 mM) was added, and after a further quarter-hour of incubation, the absorbance was estimated at 405 nm. The blank well contained the same amount of Tris-HCl buffer instead of the sample solution. […] All measurements were conducted in triplicate, and the values are presented as IC50 means with standard deviations (SDs). The percent inhibition was calculated using the following formula:Enzyme inhibition activity (%) = (B − S)/B × 100% where B is the blank, and S is the sample absorbance.

[2] = Free radical scavenging activity (DPPH assay); conditions: compounds 1–19; Trolox equivalents; mean ± SD, triplicate
Protocol: The methanolic solutions of fractions or compounds (130 µL) were added to the DPPH solution (70 µL). The sample’s absorbance was recorded after 30 min of incubation in darkness. All tests were performed in triplicate [33]. The radical scavenging activity of the tested samples was calculated using an equation obtained through linear regression of the Trolox standard curve. The methanolic solutions of fractions or compounds (130 µL) were added to the DPPH solution (70 µL). The sample absorbance was recorded after 30 min of incubation in darkness. All tests were performed in triplicate [33]. The radical scavenging activity of the tested samples was calculated using the equation obtained through linear regression of the Trolox standard curve.

[3] = ABTS radical cation scavenging activity (Antioxidant Assay Kit); conditions: compounds 1–19; Trolox equivalents; mean ± SD, triplicate
Protocol: The potential inhibition of the production of the radical cation was measured using an Antioxidant Assay Kit. In short, the mixed solution, including 10 µL of the test sample, 20 µL of the myoglobin working solution, and 150 µL of the ABTS working solution, was incubated for 5 min. Then, 100 µL of the stop solution was added, and the absorbance was measured at 405 nm. All tests were performed in triplicate. The results were expressed as µM of Trolox equivalents obtained from the standard curve.

[4] = Ferric-reducing antioxidant power method (FRAP); conditions: compounds 1–19; ferrous ion equivalents; mean ± SD, triplicate; na = no significant activity
Protocol: The ferric-reducing power was measured using the Ferric-Reducing Antioxidant Power Assay Kit. In brief, 10 µL of the tested solution was added to 190 µL of the reaction solutions (containing FRAP Assay Buffer, FeCl3 solution, and FRAP Probe). All of the absorbance values were recorded at 594 nm after 1 h of incubation at 37 °C. The chelating activity was determined using a standard curve and evaluated as mM of ferrous ion equivalents. All tests were performed in triplicate.

[5] = Cupric ion reducing method (CUPRAC); conditions: compounds 1–19; Trolox equivalents; mean ± SD, triplicate; na = no significant activity
Protocol: The total antioxidant capacity was determined using an Antioxidant Assay Kit MAK334. In short, 20 µL of each fraction or compound solution was added to 100 µL of the Reaction Mix in the clear, flat-bottomed 96-well plate. The absorbance was measured at 570 nm after 10 min of incubation at room temperature. The results were determined using a standard curve evaluated for Trolox.

[6] = compounds 1–19, mean ± SD, at least triplicate, read-out: AChE IC50

Sequence of acetylcholinesterase (AChE) (P22303 32-614): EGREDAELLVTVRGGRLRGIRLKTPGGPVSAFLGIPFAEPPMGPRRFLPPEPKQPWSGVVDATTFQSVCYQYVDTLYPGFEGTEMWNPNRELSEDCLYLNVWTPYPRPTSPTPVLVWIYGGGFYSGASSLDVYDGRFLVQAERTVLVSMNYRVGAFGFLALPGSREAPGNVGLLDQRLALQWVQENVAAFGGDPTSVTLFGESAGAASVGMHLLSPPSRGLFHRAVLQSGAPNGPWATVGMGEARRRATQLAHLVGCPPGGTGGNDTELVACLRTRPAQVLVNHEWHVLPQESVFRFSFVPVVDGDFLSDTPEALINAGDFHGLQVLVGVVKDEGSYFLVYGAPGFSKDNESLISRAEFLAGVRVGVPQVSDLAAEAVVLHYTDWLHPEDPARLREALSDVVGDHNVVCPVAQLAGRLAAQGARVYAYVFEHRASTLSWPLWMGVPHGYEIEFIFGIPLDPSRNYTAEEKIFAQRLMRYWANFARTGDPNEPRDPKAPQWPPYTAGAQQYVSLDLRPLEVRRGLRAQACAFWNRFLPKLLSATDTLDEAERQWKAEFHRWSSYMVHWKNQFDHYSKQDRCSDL

## COc1ccc(OC)c(-c2cc(=O)c3c(O)cccc3o2)c1OC [Compound 5, 5-hydroxy-2’,3’,6’-trimethoxyflavone]
[1]; [6]
  IC50: 284.6 ± 0.8 µM
[2]
  DPPH: 34.32 ± 0.97 µM Teq
[3]
  ABTS: 280.02 ± 1.55 µM Teq

## O=c1c(OC2OC(COC3OCC(O)C(O)C3O)C(O)C(O)C2O)c(-c2ccc(O)c(O)c2)oc2cc(O)cc(O)c12 (stereo not drawn) [Compound 18, quercetin 3-O-(6″-O-β-xylopyranosyl)-β-glucopyranoside]
[1]; [6]
  IC50: 303 ± 3.33 µM
[4]
  FRAP: 63.98 ± 1.75 mM Fe^2+/mL
[5]
  CUPRAC: 1401.11 ± 2.64 µM Teq
[2]
  DPPH: 1336.75 ± 6.33 µM Teq
[3]
  ABTS: 1147.52 ± 7.06 µM Teq

## O=c1cc(-c2ccccc2)oc2cccc(O)c12 [Compound 2, 5-hydroxyflavone]
[1]; [6]
  IC50: 314.4 ± 1.72 µM
[2]
  DPPH: 41.71 ± 2.28 µM Teq
[3]
  ABTS: 317.47 ± 3.91 µM Teq

## O=c1c(O)c(-c2ccc(O)cc2)oc2cc(O)cc(O)c12 [Compound 17, kaempferol]
[1]
  IC50: 276.9 ± 1.41 µM
[4]
  FRAP: 36.87 ± 1.20 mM Fe^2+/mL
[5]
  CUPRAC: 848.64 ± 3.49 µM Teq
[2]
  DPPH: 792.53 ± 7.31 µM Teq
[3]
  ABTS: 1095.04 ± 1.85 µM Teq

## O=c1cc(-c2ccccc2O)oc2cccc(O)c12 [Compound 11, 5,2′-dihydroxyflavone]
[1]; [6]
  IC50: 371.5 ± 0.66 µM
[4]
  FRAP: 0.07 ± 0.01 mM Fe^2+/mL
[5]
  CUPRAC: 44.50 ± 1.35 µM Teq
[2]
  DPPH: 175.83 ± 2.83 µM Teq
[3]
  ABTS: 661.30 ± 3.81 µM Teq

## O=c1cc(-c2ccccc2O[C@@H]2O[C@H](CO)[C@@H](O)[C@H](O)[C@H]2O)oc2cccc(O)c12 [Compound 9, 5,2′-dihydroxyflavone 2′-O-β-glucopyranoside]
[1]; [6]
  IC50: 399.7 ± 0.64 µM
[5]
  CUPRAC: 20.33 ± 1.57 µM Teq
[2]
  DPPH: 170.56 ± 2.49 µM Teq
[3]
  ABTS: 204.59 ± 2.26 µM Teq

## O=c1c(OC2OC(COC3OCC(O)C(O)C3O)C(O)C(O)C2O)c(-c2ccc(O)cc2)oc2cc(O)cc(O)c12 (stereo not drawn) [Compound 16, kaempferol-3-O-(6″-O-β-xylopyranosyl)-β-glucopyranoside]
[1]; [6]
  IC50: 364.3 ± 1.79 µM
[4]
  FRAP: 0.67 ± 0.06 mM Fe^2+/mL
[5]
  CUPRAC: 74.40 ± 1.49 µM Teq
[2]
  DPPH: 300.29 ± 1.87 µM Teq
[3]
  ABTS: 717.32 ± 3.47 µM Teq

## O=c1cc(-c2ccccc2)oc2ccc(OC3OC(COC4OC(CO)C(O)C(O)C4O)C(O)C(O)C3O)c(O)c12 (stereo not drawn) [Compound 10, 5,6-dihydroxyflavone 6-O-(6″-O-glucopyranosyl)-β-glucopyranoside]
[1]; [6]
  IC50: 376.1 ± 1.87 µM
[5]
  CUPRAC: 19.79 ± 1.03 µM Teq
[2]
  DPPH: 204.31 ± 3.31 µM Teq
[3]
  ABTS: 624.94 ± 5.70 µM Teq

## COc1ccc(O)c(-c2cc(=O)c3c(O)cccc3o2)c1OC [Compound 7, 5,6′-dihydroxy-2′,3′-dimethoxyflavone]
[1]; [6]
  IC50: 390.8 ± 0.66 µM
[2]
  DPPH: 37.85 ± 1.90 µM Teq
[3]
  ABTS: 277.56 ± 2.88 µM Teq

## CC1OC(OCC2OC(Oc3c(-c4ccc(O)cc4)oc4cc(O)cc(O)c4c3=O)C(O)C(O)C2O)C(O)C(O)C1O (stereo not drawn) [Compound 15, kaempferol 3-O-(6″-O-α-rhamnopyranosyl)-β-glucopyranoside]
[1]; [6]
  IC50: 407.4 ± 1.41 µM
[4]
  FRAP: 0.40 ± 0.06 mM Fe^2+/mL
[5]
  CUPRAC: 56.81 ± 1.52 µM Teq
[2]
  DPPH: 250.72 ± 1.65 µM Teq
[3]
  ABTS: 702.29 ± 2.47 µM Teq

## O=c1cc(-c2ccccc2)oc2cc(O)cc(O)c12 [Compound 13, 5,7-dihydroxyflavone]
[1]; [6]
  IC50: 330.1 ± 1.77 µM
[4]
  FRAP: 0.08 ± 0.01 mM Fe^2+/mL
[2]
  DPPH: 227.51 ± 1.83 µM Teq
[3]
  ABTS: 728.26 ± 1.08 µM Teq

## O=c1cc(-c2ccccc2)oc2ccc(O)c(O)c12 [Compound 12, 5,6-dihydroxyflavone]
[1]; [6]
  IC50: 362.2 ± 0.39 µM
[4]
  FRAP: 54.25 ± 1.03 mM Fe^2+/mL
[5]
  CUPRAC: 1060.42 ± 5.33 µM Teq
[2]
  DPPH: 1522.38 ± 7.31 µM Teq
[3]
  ABTS: 1052.41 ± 5.51 µM Teq

## COc1ccccc1-c1cc(=O)c2c(O)cccc2o1 [Compound 3, 5-hydroxy-2′-methoxyflavone]
[1]; [6]
  IC50: 279.7 ± 0.45 µM
[2]
  DPPH: 39.39 ± 1.59 µM Teq
[3]
  ABTS: 330.59 ± 4.04 µM Teq

## C[C@@H]1O[C@@H](OC[C@H]2O[C@@H](Oc3c(-c4ccc(O)c(O)c4)oc4cc(O)cc(O)c4c3=O)[C@H](O)[C@@H](O)[C@@H]2O)[C@H](O)[C@H](O)[C@H]1O [Compound 19, quercetin 3-O-(6″-O-α-rhamnopyranosyl)-β-glucopyranoside]
[1]
  IC50: 445.32 ± 0.35 µM
[4]
  FRAP: 52.98 ± 1.35 mM Fe^2+/mL
[5]
  CUPRAC: 1258.68 ± 3.49 µM Teq
[2]
  DPPH: 1467.53 ± 5.48 µM Teq
[3]
  ABTS: 1149.16 ± 5.25 µM Teq

## O=C(CC(=O)c1ccccc1)c1ccccc1 [Compound 1, 1,3-diphenylpropane-1,3-dione]
[1]; [6]
  IC50: 144.8 ± 1.3 µM
[5]
  CUPRAC: 3.18 ± 0.32 µM Teq
[2]
  DPPH: 39.81 ± 2.76 µM Teq
[3]
  ABTS: 300.12 ± 4.97 µM Teq

## COc1ccc2oc(-c3ccccc3O)cc(=O)c2c1O [Compound 6, 2’,5-dihydroxy-6-methoxyflavone]
[1]; [6]
  IC50: 391.8 ± 1.06 µM
[4]
  FRAP: 15.81 ± 0.85 mM Fe^2+/mL
[5]
  CUPRAC: 366.29 ± 1.24 µM Teq
[2]
  DPPH: 227.55 ± 2.85 µM Teq
[3]
  ABTS: 781.28 ± 4.38 µM Teq

## COc1cccc(OC)c1-c1cc(=O)c2c(O)cccc2o1 [Compound 4, 5-hydroxy-2’,6’-dimethoxyflavone]
[1]; [6]
  IC50: 325.4 ± 3.21 µM
[2]
  DPPH: 28.63 ± 2.40 µM Teq
[3]
  ABTS: 326.76 ± 6.64 µM Teq
